Laboratory results: patent US20060069132A1, “Azolecarboxamide herbicides” (priority 2004, published 2006)

Tests used:
[1] = tested on: barnyardgrass; experiment: Test A pre-/postemergence herbicide test; format: in vivo, Echinochloa crus-galli
Summary of the method: (§1)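 Sandy loam soil given preemergence directed spray; plants at 2 to 10 cm, one- to two-leaf stage, sprayed to runoff postemergence, compounds in non-phytotoxic solvent with surfactant. Injury rated visually versus untreated controls after about ten greenhouse days, 0 (no effect) to 100 (complete control); dash means not tested.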

[2] = tested on: giant foxtail; experiment: Test A pre-/postemergence herbicide test; format: in vivo, Setaria faberi
Summary of the method: as §1

[3] = tested on: redroot pigweed; experiment: Test A pre-/postemergence herbicide test; format: in vivo, Amaranthus retroflexus
Summary of the method: as §1

[4] = tested on: bermudagrass; experiment: Test C pre-/postemergence herbicide test; format: in vivo, Cynodon dactylon
Summary of the method: (§2)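 Preemergence: seeds planted and treated with compound in non-phytotoxic solvent with surfactant; postemergence: plants at 2 to 18 cm (1- to 4-leaf stage) sprayed likewise. Kept in greenhouse 12 to 14 days, then visually rated against controls, 0 (no effect) to 100 (complete control).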

[5] = tested on: cocklebur; experiment: Test C pre-/postemergence herbicide test; format: in vivo, Xanthium strumarium
Summary of the method: as §2

[6] = tested on: woolly cupgrass; experiment: Test C pre-/postemergence herbicide test; format: in vivo, Eriochloa villosa
Summary of the method: as §2

[7] = tested on: goosegrass; experiment: Test C pre-/postemergence herbicide test; format: in vivo, Eleusine indica
Summary of the method: as §2

[8] = tested on: kochia; experiment: Test C pre-/postemergence herbicide test; format: in vivo, Kochia scoparia
Summary of the method: as §2

[9] = tested on: lambsquarters; experiment: Test C pre-/postemergence herbicide test; format: in vivo, Chenopodium album; conditions: preemergence
Summary of the method: as §2

[10] = tested on: morningglory; experiment: Test C pre-/postemergence herbicide test; format: in vivo, Ipomoea coccinea; set-up: key to Plant response rating, Morningglory: 0 = no effect, 100 = complete control
Summary of the method: as §2

[11] = tested on: smallflower umbrella sedge; experiment: Test C flooded paddy test; format: in vivo, Cyperus difformis
[12] = tested on: ducksalad; experiment: Test C flooded paddy test; format: in vivo, Heteranthera limosa
[13] = Postemergence, 500 g ai/ha, 0 to 100 scale, 0 no effect, 100 complete control
[14] = Postemergence, 2000 g ai/ha, 0 to 100 scale, 0 no effect, 100 complete control
[15] = Preemergence, 500 g ai/ha, visual rating, 0 to 100 scale (0 no effect, 100 complete control)
[16] = Preemergence, 2000 g ai/ha, visual rating, 0 to 100 scale (0 no effect, 100 complete control)
[17] = 125 g ai/ha, scale 0 (no effect) to 100 (complete control), visual, 12 to 14 days, preemergence
[18] = 250 g ai/ha, scale 0 to 100 (0 no effect, 100 complete control), visual, 12 to 14 days, preemergence
[19] = Postemergence, 250 g ai/ha, scale 0 to 100, 0 no effect, 100 complete control
[20] = postemergence, 125 g ai/ha, scale 0 to 100
[21] = postemergence, 31 g ai/ha, scale 0 to 100
[22] = postemergence, 62 g ai/ha, scale 0 to 100
[23] = 62 g ai/ha, scale 0 to 100 (0 no effect, 100 complete control)
[24] = 125 g ai/ha, scale 0 to 100 (0 no effect, 100 complete control)
[25] = 250 g ai/ha, scale of 0 to 100, 0 is no effect, 100 is complete control
[26] = 500 g ai/ha, visual rating after 12 to 14 days, scale 0 to 100 (0 no effect, 100 complete control)

Question: `CCn1nc(C(C)(C)C)cc1C(=O)Nc1cccc(C#N)c1` [Compound 139] was tested. Which “Barnyardgrass plant response rating” value [1, 13] did it give?
Answer: 35

Question: What about the “Plant response rating, Barnyardgrass” value [1, 14] of the same compound?
Answer: 60

Question: And the “Barnyardgrass plant response rating” value [1, 15]?
Answer: 40

Question: What about the “Barnyardgrass plant response rating” value [1, 16] of the same compound?
Answer: 60

Question: What about the “Foxtail, Giant plant response rating” value [2, 13] of the same compound?
Answer: 20

Question: And the “Plant response rating, Foxtail, Giant” value [2, 14]?
Answer: 40

Question: And the “Foxtail, Giant plant response rating” value [2, 15]?
Answer: 60

Question: What about the “Foxtail, Giant plant response rating” value [2, 16] of the same compound?
Answer: 75

Question: And the “Pigweed plant response rating” value [3, 13]?
Answer: 75

Question: And the “Plant response rating, Pigweed” value [3, 14]?
Answer: 100

Question: And the “Pigweed plant response rating” value [3, 16]?
Answer: 100

Question: What about the “Pigweed plant response rating” value ([3]; preemergence, 500 g ai/ha, visual injury, 0 to 100 scale (0 no effect, 100 complete control)) of the same compound?
Answer: 100

Question: And the “Plant response rating, Bermudagrass” value ([4]; 31 g ai/ha, scale 0 to 100, 0 no effect, 100 complete control, last section of Table C (species set of preemergence test))?
Answer: 10

Question: And the “Plant response rating (0 = no effect, 100 = complete control), Bermudagrass” value ([4]; 62 g ai/ha, preemergence)?
Answer: 60

Question: What about the “Plant response rating, Bermudagrass” value [4, 17] of the same compound?
Answer: 90

Question: What about the “Plant response rating, Bermudagrass” value [4, 18] of the same compound?
Answer: 95

Question: What about the “Plant response rating, Bermudagrass” value [4, 19] of the same compound?
Answer: 0

Question: And the “Plant response rating, Bermudagrass” value [4, 20]?
Answer: 0

Question: What about the “Plant response rating, Bermudagrass” value [4, 21] of the same compound?
Answer: 0

Question: And the “Plant response rating, Bermudagrass” value [4, 22]?
Answer: 0

Question: What about the “Plant response rating (0 = no effect, 100 = complete control), Cocklebur” value ([5]; 62 g ai/ha, preemergence) of the same compound?
Answer: 0

Question: What about the “Plant response rating, Cocklebur” value [5, 17] of the same compound?
Answer: 0

Question: And the “Plant response rating, Cocklebur” value [5, 18]?
Answer: 0

Question: What about the “Plant response rating, Cocklebur” value [5, 19] of the same compound?
Answer: 10

Question: What about the “Plant response rating, Cocklebur” value [5, 20] of the same compound?
Answer: 10

Question: And the “Plant response rating, Cocklebur” value [5, 21]?
Answer: 5

Question: And the “Plant response rating, Cocklebur” value [5, 22]?
Answer: 5

Question: And the “Plant response rating (0 = no effect, 100 = complete control), Cupgrass, Woolly” value ([6]; 62 g ai/ha, preemergence)?
Answer: 0

Question: What about the “Plant response rating, Cupgrass, Woolly” value [6, 17] of the same compound?
Answer: 10

Question: And the “Plant response rating, Cupgrass, Woolly” value [6, 18]?
Answer: 55

Question: What about the “Plant response rating, Cupgrass, Woolly” value [6, 19] of the same compound?
Answer: 5

Question: What about the “Plant response rating, Cupgrass, Woolly” value [6, 20] of the same compound?
Answer: 0

Question: What about the “Plant response rating, Cupgrass, Woolly” value [6, 22] of the same compound?
Answer: 0

Question: And the “Plant response rating (0 = no effect, 100 = complete control), Goosegrass” value ([7]; 62 g ai/ha, preemergence)?
Answer: 60

Question: What about the “Plant response rating, Goosegrass” value [7, 17] of the same compound?
Answer: 85

Question: And the “Plant response rating, Goosegrass” value [7, 19]?
Answer: 5

Question: What about the “Plant response rating, Goosegrass” value [7, 20] of the same compound?
Answer: 0

Question: What about the “Plant response rating, Goosegrass” value [7, 22] of the same compound?
Answer: 0

Question: And the “Plant response rating (0 = no effect, 100 = complete control), Kochia” value ([8]; 62 g ai/ha, preemergence)?
Answer: 100

Question: And the “Plant response rating, Kochia” value [8, 17]?
Answer: 100

Question: And the “Plant response rating, Kochia” value [8, 19]?
Answer: 50

Question: What about the “Plant response rating, Kochia” value [8, 20] of the same compound?
Answer: 50

Question: And the “Plant response rating, Kochia” value [8, 22]?
Answer: 50

Question: What about the “Plant response rating (0 = no effect, 100 = complete control), Lambsquarters” value ([9]; 62 g ai/ha) of the same compound?
Answer: 100

Question: And the “Plant response rating, Lambsquarters” value ([9]; 125 g ai/ha, scale 0 (no effect) to 100 (complete control), visual, 12 to 14 days)?
Answer: 100

Question: And the “Plant response rating (0 = no effect, 100 = complete control), Morningglory” value ([10]; 62 g ai/ha, preemergence)?
Answer: 0

Question: And the “Plant response rating, Morningglory” value [10, 17]?
Answer: 10

Question: What about the “Plant response rating, Morningglory” value [10, 19] of the same compound?
Answer: 60

Question: And the “Plant response rating, Morningglory” value [10, 20]?
Answer: 50

Question: What about the “Plant response rating, Morningglory” value [10, 22] of the same compound?
Answer: 0

Question: And the “Sedge, Umbrella plant response rating” value [11, 23]?
Answer: 75

Question: And the “Sedge, Umbrella plant response rating” value [11, 24]?
Answer: 80

Question: What about the “Sedge, Umbrella plant response rating” value [11, 25] of the same compound?
Answer: 85

Question: And the “Plant response rating, Sedge, Umbrella” value [11, 26]?
Answer: 85

Question: And the “Ducksalad plant response rating” value [12, 23]?
Answer: 0

Question: What about the “Ducksalad plant response rating” value [12, 24] of the same compound?
Answer: 70

Question: What about the “Ducksalad plant response rating” value [12, 25] of the same compound?
Answer: 85

Question: And the “Plant response rating, Ducksalad” value [12, 26]?
Answer: 90
